# Assay results from patent US6664231B1, “Anti-fungal peptides” (priority 1993, dated 2003).
# Square brackets hold non-standard residues; d marks the D form. Ends that are not written are not given here. pGlu = O=C1CC[C@@H](C(=O)O)N1
# System: C. albicans (CA-1, Strain SLU-1)
# Experiment: Radial diffusion assay
# Format: cell-based, Candida albicans
# Settings: for C. albicans pmol/30 mm^2 zone: pmoles of peptide added to well to achieve a 30 mm^2 zone, PROBIT analysis, crude or purified (P′) peptide; for Plate Assay (nmol), pure peptide activity: HPLC-purified peptide; for Plate Assay (nmol), pure peptide activity / Plate Assay (nmol), crude peptide activity: nanomoles required to achieve a net 30 mm^2 zone (log titration curve)
# In short: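 Peptides, serially diluted 2-fold in D-PBS (top ~1 mg/mL), diffused 3 h at 37° C into pH 7.4 phosphate-buffered agarose seeded with 1×10^6 CFU/mL yeast, before overnight growth under a 6% Sabouraud overlayer. Net inhibition zones measured after Coomassie staining; PROBIT fit of log pmol vs area gave pmol for 30 mm^2.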
substance,measurement,setting,value
H-VKWLIQLFHK-NH2 [XMP.292],C. albicans pmol/30 mm^2 zone,,">4,463 pmol/30 mm^2 zone"
H-VKWLIQLFHKK-NH2 [Peptide 289],"Plate Assay (nmol), pure peptide activity",,0.68 nmol
same,"Plate Assay (nmol), crude peptide activity",,1.542 nmol
H-VKWLIQLFHKK-NH2 [XMP.289],C. albicans pmol/30 mm^2 zone,,"1,542 pmol/30 mm^2 zone"
same,C. albicans pmol/30 mm^2 zone,listed as XMP.289P′,658 pmol/30 mm^2 zone
H-WLIQL-NH2 [XMP.320],C. albicans pmol/30 mm^2 zone,,">4,055 pmol/30 mm^2 zone"
H-WLIQLF-NH2 [XMP.316],C. albicans pmol/30 mm^2 zone,,b (No detectable activity up to 5 μg/well)
same,C. albicans pmol/30 mm^2 zone,listed as XMP.316P′,"g (inactive to 7,194 pmol)"
H-WLIQLF-NH2 [compound 316],"Plate Assay (nmol), pure peptide activity",,inactive
same,"Plate Assay (nmol), crude peptide activity",,11.1 nmol
H-WLIQLFH-NH2 [XMP.309],C. albicans pmol/30 mm^2 zone,,b (No detectable activity up to 5 μg/well)
H-WLIQLK-NH2 [XMP.321],C. albicans pmol/30 mm^2 zone,,">5,851 pmol/30 mm^2 zone"
H-WLIQLKK-NH2 [XMP.322],C. albicans pmol/30 mm^2 zone,,"3,488 pmol/30 mm^2 zone"
KKVLIQLKK-NH2 [XMP.343],C. albicans pmol/30 mm^2 zone,,245 pmol/30 mm^2 zone
XMP.137: C-148-161-C (SEQ ID NO:56) (CKSKVGWLIQLFHKKC),C. albicans pmol/30 mm^2 zone,,>2286 pmol/30 mm^2 zone
XMP.341: PYR - PYR - 153-157 - PYR - PYR (SEQ ID NO:172) ([pGlu][pGlu]WLIQL[pGlu][pGlu]; not fully specified; printed as PYR - PYR - 153-157 - PYR - PYR),C. albicans pmol/30 mm^2 zone,,b (No detectable activity up to 5 μg/well)
XMP.359: CD - 153-161 (SEQ ID NO:190) ([dC]WLIQLFHKK),C. albicans pmol/30 mm^2 zone,,b (No detectable activity up to 5 μg/well)
XMP.380: K - K - Q - L - L - L - L - K - K (SEQ ID NO:211) (KKQLLLLKK),C. albicans pmol/30 mm^2 zone,,886 pmol/30 mm^2 zone
XMP.382: K - K - L - L - Q - L - L - K - K (SEQ ID NO:213) (KKLLQLLKK),C. albicans pmol/30 mm^2 zone,,"1,437 pmol/30 mm^2 zone"
XMP.383: K - K - L - L - L - Q - L - K - K (SEQ ID NO:214) (KKLLLQLKK),C. albicans pmol/30 mm^2 zone,,473 pmol/30 mm^2 zone
XMP.384: K - K - L - L - L - L - Q - K - K (SEQ ID NO:215) (KKLLLLQKK),C. albicans pmol/30 mm^2 zone,,"2,804 pmol/30 mm^2 zone"
"XMP.390: 151-161, K @ 151 (V), P @ 152 (G) (SEQ ID NO:221) (KPWLIQLFHKK)",C. albicans pmol/30 mm^2 zone,,674 pmol/30 mm^2 zone
"XMP.392: 150-161, P @ 152 (G) (SEQ ID NO:223) (KVPWLIQLFHKK)",C. albicans pmol/30 mm^2 zone,,569 pmol/30 mm^2 zone
XMP.408: L - K - K - K - W - A - I - Q (cyclized head to tail) (SEQ ID NO:239) (LKKKWAIQ; head-to-tail cyclized),C. albicans pmol/30 mm^2 zone,,b (No detectable activity up to 5 μg/well)
"XMP.409: S - K - 153-157 - K - K, A @ 154 (L) (SEQ ID NO:240) (SKWAIQLKK)",C. albicans pmol/30 mm^2 zone,,795 pmol/30 mm^2 zone
